pIC50: −log10 of the molar value. ≈ marks a conversion by molar mass, not a printed value. Read-outs that look alike come from different tables or passages of the source.
Key:
[1] = system: P. falciparum 3D7^0087/N9; assay: P. falciparum murine model (humanized mice), 4-day test; format: in vivo, Plasmodium falciparum
Protocol: The in vivo efficacy evaluation of the compounds was performed using a P. falciparum murine model of malaria in non‐myelodepleted NOD. Cg‐Prkdc^ scid –β2m^ tm1Unc ‐scid IL2R_null (NODscidβ2m^−/−) mice engrafted with human erythrocytes as described previously (Angulo‐Barturen et al., [2008]; Jimenez‐Diaz et al., [2005]; Jimenez‐Diaz et al., [2009]; Jimenez‐Diaz et al., [2009]), as this model enables testing of P. falciparum strains with high infectious burden. Briefly, groups of three mice engrafted with human erythrocytes were infected with 20 × 10^6 of P. falciparum 3D7^0087/N9‐infected erythrocytes/mouse by intravenous route. The mice were randomly assigned to their corresponding experimental groups. The treatment of oral doses QD for 4 days started at day 3 after infection. Parasitaemia was measured at days 3, 5, and 7 post‐infection. The therapeutic efficacy was expressed as the dose (mg·kg^−1) that reduced parasitaemia in peripheral blood of mice at day 7 after infection by 90% (ED90) with respect to vehicle‐treated mice. Chloroquine was included as quality control for each in vivo assay. Efficacy is expressed as the daily dose (ED90), or equivalent exposure (AUCED90), administered to mice necessary to reduce parasitaemia at day 7 by 90% with respect to vehicle‐treated mice. The ED90 is estimated by fitting a four‐decade logistic equation for the log10 [parasitaemia at day 7] versus the log10 [dose] using GraphPad Prism 5.01 (GraphPad Software Inc., San Diego, CA).

[2] = system: Plasmodium falciparum FCR3 (CQ,AT); assay: [3H]hypoxanthine incorporation antimalarial assay, strain FCR3; format: cell-based; conditions: FCR3, 72 h, read-out: IC50 FCR3 (CQ,AT)
Protocol: (§1) The activity of the test compounds against P. falciparum in vitro was determined using the tritiated hypoxanthine incorporation assay of Desjardins et al. and additionally modified by Milhous and Chulay (Chulay, Haynes, & Diggs, [1983]; Milhous, Weatherly, Bowdre, & Desjardins, [1985]).
(§2) Compounds were dissolved in DMSO and subsequently diluted in the culture medium (RPMI 1640) supplemented with 10% v/v human plasma. Serial 1:2 drug dilutions were prepared in triplicate in microtitre plates. Culture medium supplemented with 10% v/v human plasma and type A Rhesus positive human erythrocytes infected with P. falciparum strains was added to yield a haematocrit of 3% and a parasitaemia of 0.25–0.55%. The plates were incubated at 37°C in a modular incubator flushed with a mixture of 5% oxygen, 3% carbon dioxide, and 92% nitrogen for 48 h, and then [^3H]hypoxanthine was added to give a final concentration of 12.5–16 μCi·ml^−1. After incubation for additional 24 h, particulate matter was harvested on fibreglass strips and hypoxanthine incorporation determined by scintillation spectrophotometry. […] Delayed death experiments were performed by this standard method but extending the incubation time with the drug up to 96 h.

[3] = system: Plasmodium falciparum 7G8 (CQ, PY); assay: [3H]hypoxanthine incorporation antimalarial assay, strain 7G8; format: cell-based; conditions: 7G8, 72 h, read-out: IC50 7G8 (CQ, PY)
Protocol: as §1, §2

[4] = system: Plasmodium falciparum 3D7A (sensitive); parameters: method as in Pesic et al. ([2012]); conditions: 72 h of incubation; ref Pesic et al. ([2012]); cited from earlier work
[5] = Pharmacokinetics in P. falciparum infected and uninfected humanized mice; conditions: oral 10 mg·kg^−1, mean (SD); for Cmax / Tmax: NODscidβ2m^−/−, mouse, in vivo, po, 10 mg/kg; for Cmax: C max, blood; for Tmax: t max
Protocol: For pharmacokinetic (PK) studies in mice, animals were dosed either by intravenous (i.v.) or oral (p.o.) route.
(§3) For studies performed in Swiss albino CD‐1 mice (Harlan Laboratories, Spain), in order to obtain simultaneous blood and plasma profiles and blood‐to‐plasma (B/P) ratio, PK was performed using terminal sampling of N = 3 animals per time point and data evaluated using composite analysis. For studies performed in P. falciparum infected and non‐infected NODscidβ2m^−/− mice (Charles River Laboratories, France), only whole blood was obtained by serial sampling of N = 3 animals using tail puncture.
(§4) For analysis of whole blood samples, 25 μl of fresh blood were mixed with 25 μl of saponin solution (0.1% in water) and immediately frozen on dry ice. Plasma was obtained by centrifugation of fresh blood at 2,500 g for 10 min. Both blood and plasma samples were stored frozen at −80°C until analysis.
(§5) Diluted blood and plasma samples were processed under standard liquid–liquid extraction procedures using acetonitrile containing internal standard (clarithromycin, 100 ng·ml^−1) and analysed by LC–MS/MS in positive ion mode with electrospray. Samples were assayed for parent compound using a Sciex API 4000 and Sciex API‐2000 Triple Quadrupole Mass Spectrometer (Sciex, Division of MDS Inc., Toronto, Canada), against a series of matrix matched calibration curve standards, using multiple reaction monitoring (MRM) at the specific transitions for each compound. Non‐compartmental analysis was performed using WinNonlin, version 4.1 (Pharsight, Mountain View, CA), and the main pharmacokinetic parameters were estimated.

[6] = system: Plasmodium falciparum W2 (chloroquine/pyrimethamine resistant); parameters: method as in Pesic et al. ([2012]); conditions: 72 h of incubation; ref Pesic et al. ([2012]); cited from earlier work
haem polymerization = assay: Cell-free haem polymerization assay; format: biochemical; conditions: for pIC50: cell‐free, N = 2
Protocol: Experiments were performed according to Tripathi, Khan, Walker, and […] ([2004]). Briefly, a solution of sodium acetate containing mono-oleoyl glycol and the corresponding inhibitor at different concentrations is placed in 1.5-ml reaction tubes. […] Multiple washing steps with Tris/SDS and bicarbonate, to remove monomeric haem and haem aggregates, allow quantification of de novo formed β-haematin.

[7] = system: Plasmodium falciparum T9/94 (CQ); assay: [3H]hypoxanthine incorporation antimalarial assay, strain T9/94; format: cell-based; conditions: 72 h, read-out: IC50 T9/94 (CQ)
Protocol: as §1, §2

[8] = system: Plasmodium falciparum V1/S (CQ,PY); assay: microbe, parasite or virus in culture; format: cell-based; conditions: 72 h, read-out: IC50 V1/S (CQ,PY)
Protocol: as §1, §2

[9] = system: Plasmodium falciparum Dd2 (CQ,Q,PY,S); assay: microbe, parasite or virus in culture; format: cell-based; conditions: for pIC50: Plasmodium falciparum
Protocol: as §1, §2

[10] = system: Plasmodium falciparum K1 (CQ,PY); assay: [3H]hypoxanthine incorporation antimalarial assay, strain K1; format: cell-based; conditions: K1, 72 h, read-out: IC50 K1 (CQ,PY)
Protocol: as §1, §2

H. influenzae ATCC49247 = assay: Antibacterial screen, broth microdilution; format: cell-based; conditions: Haemophilus influenzae
Protocol: (§6) Antibacterial activity of compounds was determined by a standard broth microdilution method (Clinical Laboratory Standard Institute CLSI, [2009]), except that for Streptococcus strains lysed blood was substituted with 5% horse serum in the testing medium. […] The activities are expressed as minimum inhibitory concentrations (MICs) in units of μg·ml^−1. […] The organisms tested represented macrolide sensitive Gram‐positive pathogens that are mainly targeted by macrolide antibiotics. Tested streptococci were clinical isolates Streptococcus pneumoniae SP030 and Streptococcus pyogenes 3565 from internal strain collection, and other strains were obtained from ATCC bioresource centre, Staphylococcus aureus ATCC13709, Haemophilus influenzae ATCC49247, and Moraxella catarrhalis ATCC23246. Double dilutions of tested compounds were prepared using TECAN Genesis 150. Bacteria were grown on appropriate agar plates (Becton Dickinson, USA)—Columbia agar with 5% sheep blood for streptococci and M. catarrhalis, Mueller‐Hinton chocolate agar for H. influenzae , and Mueller‐Hinton agar for staphylococci.

S. aureus ATCC13709 = assay: Antibacterial screen, broth microdilution; format: cell-based; conditions: Staphylococcus aureus
Protocol: as §6

S. pyogenes 3565 = assay: Antibacterial screen, broth microdilution; format: cell-based; conditions: Streptococcus pyogenes
Protocol: as §6

S. pneumoniae SP030 = assay: Antibacterial screen, broth microdilution; format: cell-based; conditions: Streptococcus pneumoniae
Protocol: as §6

M. catarrhalis ATCC23246 = assay: Antibacterial screen, broth microdilution; format: cell-based, Moraxella catarrhalis
Protocol: as §6

[11] = Pharmacokinetic studies in CD-1 mice
Protocol: For pharmacokinetic (PK) studies in mice, animals were dosed either by intravenous (i.v.) or oral (p.o.) route. For i.v. administration, the dosing volume was 10 ml·kg^−1 for a total dose of 12.5 mg·kg^−1, and for p.o. administration, the dosing volume was 20 ml·kg^−1 for a total dose of 12.5 mg·kg^−1. Dosing solutions were prepared in 100% saline ([…]) both for i.v. and p.o. administration for all compounds with the exception of compound 4 for which dosing solutions were prepared in PBS with 5% Cremophor‐EL (Fluka). Following i.v. dosing, blood samples were collected at 5 and 15 min, 1, 3, 6, 8, 24, and 48 h post‐dose. Following oral dosing, blood samples were collected at 15 and 30 min, 1, 2, 4, 6, 8, 24, and 48 h post‐dose.
as §3, §4, §5

[12] = system: Plasmodium falciparum W2 (chloroquine/pyrimethamine resistant); assay: [3H]hypoxanthine incorporation antimalarial assay, strain W2; format: cell-based; conditions: W2, 72 h, read-out: Plasmodium falciparum IC50 W2
Protocol: as §1, §2

[13] = system: Plasmodium falciparum Dd2(AZ^R); assay: [3H]hypoxanthine incorporation antimalarial assay, azithromycin-resistant mutant Dd2(AZ^R); format: cell-based
Protocol: as §1, §2

[14] = system: Plasmodium falciparum 3D7A (sensitive); assay: [3H]hypoxanthine incorporation antimalarial assay, strain 3D7A; format: cell-based; conditions: 72 h of incubation, N = 3
Protocol: as §1, §2

HepG2 cells = assay: Cytotoxicity assay (MTS); format: cell-based, human; conditions: 24 h, N = 2
Protocol: The detailed protocol for cytotoxicity measurement is described elsewhere (Verbanac et al., [2005]). In brief, HepG2 cells were maintained in complete RPMI 1640 medium supplemented with 10% FBS at 37°C in a 5% CO2 atmosphere. Each culture in the 96‐well plates contained 50,000 cells which were exposed to serial dilutions (1:2) of compounds initially dissolved in DMSO and subsequently diluted in supplemented RPMI 1640 medium. Compounds were tested in duplicates, and plates were incubated for 24 h at 37°C in 5% CO2. The cytotoxicity assay was performed using the MTS CellTiter 96 AQueous One Solution Cell Proliferation Assay (Promega, USA). After the addition of MTS reagent and 2 h of incubation at 37°C in 5% CO2, the absorbance at 490 nm was recorded and Tox50 determined based on the obtained response curves.

[15] = Swiss albino CD-1, mouse, whole blood, iv, 12.5 mg/kg

## CCN(CC)CCCC(C)Nc1ccnc2cc(Cl)ccc12 (stereo not drawn) [Chloroquine, reference compound]
[1]; 100 mg·kg^−1, groups of three mice
  mice with no detectable parasitaemia at day 35: all mice
[1]; humanized mice, oral
  AUCED90 (daily molar exposure for 90% parasitaemia reduction): 3.1 μM·h^−1·day^−1
[2]
  pIC50: 6.86
[3]
  pIC50: 6.71
[4]
  pIC50: 7.80
[5]; infected (I) humanized mice
  Cmax: 210 ng/mL
  Tmax: 2.33 h
  DNAUC(0–24): 200 (13) ng*h·ml^−1·mg^−1·kg^−1
[5]; uninfected (U) humanized mice
  Cmax: 72.3 ng/mL
  Tmax: 1.92 h
  DNAUC(0–24): 63 (23) ng*h·ml^−1·mg^−1·kg^−1
[6]
  pIC50: 6.37
Haem polymerization
  pIC50: 4.97 to 5.42
[7]
  pIC50: 6.75
[8]
  pIC50: 6.41
[9]; DD2, 72 h, read-out: IC50 Dd2 (CQ,Q,PY,S)
  pIC50: 6.45
[10]
  pIC50: 6.50

## CC[C@H]1OC(=O)[C@H](C)[C@@H](O[C@H]2C[C@@](C)(OC)[C@@H](O)[C@H](C)O2)[C@H](C)[C@@H](O[C@@H]2O[C@H](C)C[C@H](N(C)C(C)=O)[C@H]2O)[C@](C)(O)C[C@@H](C)CN(CCCNC(=O)Nc2ccc3ccccc3c2)[C@H](C)[C@@H](O)[C@]1(C)O [Compound 4]
H. influenzae ATCC49247
  MIC: > 64 µg/mL
S. aureus ATCC13709
  MIC: > 64 µg/mL
S. pyogenes 3565
  MIC: > 64 µg/mL
S. pneumoniae SP030
  MIC: > 64 µg/mL
M. catarrhalis ATCC23246
  activity against M. catarrhalis (in words): only minor activity
M. catarrhalis ATCC23246; Moraxella catarrhalis, ATCC23246, broth microdilution
  MIC: 32 µg/mL (≈ 32.3 µM)
[11]; CD‐1 mice, after oral administration
  B/P (ratio of AUC0−t in whole blood and plasma): 0.4
[11]; CD‐1 mice, blood, oral gavage 12.5 mg·kg^−1
  DNAUCPO (AUC0−t divided by the dose): 0.3 ng·kg·h/mL/mg
[11]; Swiss albino CD-1, mouse, whole blood, intravenous, 12.5 mg/kg
  half-life: 3.76 h
[11]; [15]
  Vd: 0.708 L/kg
  clearance: 14.8 mL/min/kg
[11]; Swiss albino CD-1, mouse, whole blood, po, 12.5 mg/kg, F, CD‐1 mice, 12.5 mg·kg^−1 i.v. and p.o.
  bioavailability: < 1%
[12]
  pIC50: 7.72
[13]; DD2, 48 h, read-out: IC50 Dd2(AZ^R) 48 h
  pIC50: 7.17
[13]; DD2, 96 h, read-out: IC50 Dd2(AZ^R) 96 h
  pIC50: 7.28
Haem polymerization
  pIC50: 4.33
Haem polymerization; compared with compounds 1, 2, 3 and chloroquine
  weaker potency in haem polymerization: ~ 10 fold
[14]
  pIC50: 7.89
[9]; Dd2 and Dd2(AZ^R), 48 versus 96 h
  Delayed death phenotype: No
[9]; DD2, 48 h, read-out: IC50 Dd2 48 h
  pIC50: 7.19
[9]; DD2, 96 h, read-out: IC50 Dd2 96 h
  pIC50: 7.15
HepG2 cells
  Tox50 HepG2: 38 µM

Reference: article PMC9328652, “A novel class of fast‐acting antimalarial agents: Substituted 15‐membered azalides” (British Journal of Pharmacology, 2020)
